{"source": "patent US9273052B2", "about": "“Phthalazinone ketone derivative, preparation method thereof, and pharmaceutical use thereof” (Jiangsu Hansoh Pharmaceutical Co., Ltd., priority 2010, dated 2016)", "key": {"[1]": {"test_system": "human breast cancer cells MX-1", "assay": "Antitumor effect with temozolomide on MX-1 transplanted tumors in nude mice", "type": "in vivo", "conditions": "breast cancer MX-1 in BALB/cA-nude mice, day 8", "description": "The therapeutic effect of the compounds of the present invention administered in combination with temozolomide (TMZ) on transplanted tumors of human colon carcinoma SW620 or human breast cancer cells MX-1 in nude mice was evaluated by using BALB/cA-nude mice as test animals. BALB/cA-nude mice, SPF, 16-20 g, female( ), were purchased from SINO-BRITSH SIPPR/BK LAB. ANIMAL LTD., CO. Certificate No.: SCXK(Shanghai) 2008-0016. Nude mice were subcutaneously inoculated with human breast cancer cells MX-1. After tumors grew to 100 to 200 mm^3, mice were randomly divided into teams (d0). The volume of tumors and the weight of the mice were measured and recorded for 2 to 3 times per week. The volume of tumor (V) was calculated by the follow equation: V=½×a×b^2 wherein: a, b represents length and width respectively. The antitumor rate(%)=(C−T)/C(%) wherein: T, C represents the tumor volume of the experimental group (tested compounds) and blank control group at the end of the experiment respectively. 5. Dosage, Dosage Regimens and the Results"}, "[2]": {"test_system": "human colon carcinoma SW620", "assay": "Antitumor effect with temozolomide on SW620 transplanted tumors in nude mice", "type": "in vivo", "conditions": "colon carcinoma SW620 in BALB/cA-nude mice; 10 mg/kg oral gavage + TMZ 50 mg/kg oral gavage; day 52", "description": "The therapeutic effect of the compounds of the present invention administered in combination with temozolomide (TMZ) on transplanted tumors of human colon carcinoma SW620 or human breast cancer cells MX-1 in nude mice was evaluated by using BALB/cA-nude mice as test animals.\nBALB/cA-nude mice, SPF, 16-20 g, female( ), were purchased from SINO-BRITSH SIPPR/BK LAB. ANIMAL LTD., CO. Certificate No.: SCXK(Shanghai) 2008-0016.\n4.2 The right rib of the nude mice was subcutaneously inoculated with colon carcinoma cells SW620. After tumors grew to 339±132 mm^3, mice were randomly divided into teams (d0).\nThe volume of tumors and the weight of the mice were measured and recorded for 2 to 3 times per week.\nThe volume of tumor (V) was calculated by the follow equation: V=½×a×b^2 wherein: a, b represents length and width respectively. The antitumor rate(%)=(C−T)/C(%) wherein: T, C represents the tumor volume of the experimental group (tested compounds) and blank control group at the end of the experiment respectively. 5. Dosage, Dosage Regimens and the Results"}, "[3]": {"assay": "Pharmacokinetics assay in SD rats (LC/MS/MS plasma concentration)", "type": "in vivo", "conditions": "oral gavage, 15 mg/kg", "description": "The pharmacokinetic behavior of the compounds of the present invention was studied and evaluated in rats.\n24 Healthy adult SD rats, male and female in half, were purchased from SINO-BRITSH SIPPR/BK LAB. ANIMAL LTD., CO, Certificate No.: SCXK (Shanghai) 2003-0002.\nThe intragastrical administration group: the right amount of tested compounds were weighed and dissolved in 0.5 mL of DMSO, diluted with physiological saline to 10 mL and prepared to 1.5 mg/mL.\nThe intravenous injection administration group: the right amount of tested compounds were weighed and added into […].\nAfter an overnight fast, 24 healthy adult SD rats, male and female in half, were administered intragastrically at a dose of 15.0 mg/kg and an administration volume of 10 mL/kg.\n(§1) The intragastrical administration group: blood samples (0.2 mL) were taken from orbital sinus at pre administration and at 0.25 hour, 0.5 hour, 1.0 hour, 1.5 hours, 2.0 hours, 3.0 hours, 4.0 hours, 6.0 hours, 7.0 hours, 9.0 hours, 12.0 hours and 24.0 hours post administration, stored in heparinized tubes and centrifuged for 20 minutes at 3,500 rpm to separate plasma. The plasma samples were stored at −20° C. The rats were fed at 2 hours after administration.\nas §1, with “intravenous injection” for “intragastrical”, “2 minutes, 15 minutes,” for “0.25 hour,”, “hour,” for “hour, 1.5 hours,”, “8.0” for “7.0 hours, 9.0”, “C.” for “C. The rats were fed at 2 hours after administration.”\n20 μL of rat blank plasmas taken at various time points after administration were added with 50 μL of internal standard solution and 140 μL of methanol and mixed for 3 minutes by a vortexer. The mixture was centrifuged for 10 minutes at 13,500 rpm. 20 μL of the supernatant was analyzed by LC-MS/MS. The main pharmacokinetic parameters were calculated by software DAS 2.0."}, "MDA-MB-436 cells": {"test_system": "MDA-MB-436 cells", "assay": "Cell proliferation inhibition assay (CCK8)", "type": "cell-based", "conditions": "Homo sapiens, 72 hours"}}}
{"smiles": "O=C(c1cc(Cc2n[nH]c(=O)c3ccccc23)ccc1F)N1CCn2nc(C(F)(F)F)nc2C1", "note": "[Example 19, 4-[[4-fluoro-3-[2-(trifluoromethyl)-6,8-dihydro-5H-[1,2,4]triazolo[1,5-a]pyrazine-7-carbonyl]phenyl]methyl]-2H-phthalazin-1-one]", "values": [{"measurement": "antitumor rate (%)", "setting": "[1]; 1 mg/kg oral gavage + TMZ 50 mg/kg oral gavage", "value": "+++ (“+++”: 80%~100%)"}, {"measurement": "antitumor rate (%)", "setting": "[1]; 3 mg/kg oral gavage + TMZ 50 mg/kg oral gavage", "value": "+++ (“+++”: 80%~100%)"}, {"measurement": "antitumor rate (%)", "setting": "[1]; 10 mg/kg oral gavage + TMZ 50 mg/kg oral gavage", "value": "+++ (“+++”: 80%~100%)"}, {"measurement": "antitumor rate (%)", "setting": "[2]", "value": "++ (“++”: 60%~80%)"}, {"measurement": "AUC", "setting": "[3]; both sexes, rat, plasma, read-out: Area Under Curve AUC", "value": "12600 ± 12400", "unit": "ng·h/mL"}, {"measurement": "half-life", "setting": "[3]; both sexes, rat, plasma, read-out: Half-Life t1/2 (converted)", "value": "9.79 ± 4.82", "unit": "h"}, {"measurement": "MRT", "setting": "[3]; both sexes, rat, plasma, read-out: Mean Residence Time MRT", "value": "3.5 ± 1.46", "unit": "h"}, {"measurement": "Cmax", "setting": "[3]; both sexes, rat, plasma, read-out: Plasma Conc. Cmax", "value": "2340 ± 1650", "unit": "ng/mL"}, {"measurement": "Apparent Distribution Volume Vz/F", "setting": "[3]", "value": "7.97 ± 5.38", "unit": "kg⁻¹"}, {"measurement": "Clearance CL/F", "setting": "[3]", "value": "3.45 ± 3.21 1/11/kg"}, {"measurement": "IC50", "setting": "MDA-MB-436 cells", "value": 49, "unit": "nM"}]}
